US20240158446A1, “CYCLIC COMPOUND HAVING SELECTIVE INHIBITORY ACTION ON KRAS OVER HRAS AND NRAS” (CHUGAI SEIYAKU KABUSHIKI KAISHA, priority 2021, published 2024)
Where two headings read alike, the source gives them in different places. Where a SMILES comes first, the peptide text is derived from it. Bridges are numbered along the chain shown (N, C = ends). [ ]: non-standard residue; d: D form. The star is where a group is joined. hPhe(3-Cl-4-CF3) = N[C@@H](CCc1ccc(C(F)(F)F)c(Cl)c1)C(=O)O; NPrPhe(4-CF3) = CCCN[C@@H](Cc1ccc(C(F)(F)F)cc1)C(=O)O; NMeGly(cPent) = CN[C@H](C(=O)O)C1CCCC1; NMeD = CN[C@@H](CC(=O)O)C(=O)O; NMeL = CN[C@@H](CC(C)C)C(=O)O; NMeA = CN[C@@H](C)C(=O)O; Pyrrolidide = C1CCN(*)C1; Ac5c = NC1(C(=O)O)CCCC1; Aze = O=C(O)[C@@H]1CCN1; Sar = CNCC(=O)O

What was measured:
[1] = biological target: GDP-bound HRAS wild-type protein (Homo sapiens, UniProt P01112); assay: Binding to HRAS by surface plasmon resonance (SPR), Single Cycle Kinetics; conditions: for HRAS/KRAS (ratio of KD value with respect to GDP-bound HRAS wild-type protein to KD value with respect to KRAS): SPR KD ratio HRAS/KRAS, class symbols
Sequence of GDP-bound HRAS wild-type protein (P01112 whole entry): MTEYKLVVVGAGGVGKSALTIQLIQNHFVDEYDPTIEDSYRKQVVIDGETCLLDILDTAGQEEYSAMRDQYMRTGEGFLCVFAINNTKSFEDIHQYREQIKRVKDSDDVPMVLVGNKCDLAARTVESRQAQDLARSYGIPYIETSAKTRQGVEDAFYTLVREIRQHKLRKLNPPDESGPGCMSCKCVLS

[2] = biological target: GDP-bound NRAS wild-type protein (Homo sapiens, UniProt P01111); assay: Binding to NRAS by surface plasmon resonance (SPR), Single Cycle Kinetics; conditions: for NRAS/KRAS (ratio of KD value with respect to GDP-bound NRAS wild-type protein to KD value with respect to KRAS): SPR KD ratio NRAS/KRAS, class symbols
Sequence of GDP-bound NRAS wild-type protein (P01111 whole entry): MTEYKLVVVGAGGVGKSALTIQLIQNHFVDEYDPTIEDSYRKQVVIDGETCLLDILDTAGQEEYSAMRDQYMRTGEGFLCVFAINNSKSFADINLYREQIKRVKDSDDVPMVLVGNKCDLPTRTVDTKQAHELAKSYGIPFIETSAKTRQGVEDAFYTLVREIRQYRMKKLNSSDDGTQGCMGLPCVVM

[3] = biological target: GDP-bound KRAS wild-type protein (Homo sapiens, UniProt P01116); assay: Binding to KRAS by surface plasmon resonance (SPR), Single Cycle Kinetics; conditions: GDP-bound KRAS wild-type protein, read-out: KRAS KD
Sequence of GDP-bound KRAS wild-type protein (P01116 whole entry): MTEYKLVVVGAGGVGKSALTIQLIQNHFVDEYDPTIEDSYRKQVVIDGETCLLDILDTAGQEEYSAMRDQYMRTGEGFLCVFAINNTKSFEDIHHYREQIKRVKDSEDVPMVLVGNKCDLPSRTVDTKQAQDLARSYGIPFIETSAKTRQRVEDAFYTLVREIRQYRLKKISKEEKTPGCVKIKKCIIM

[4] = SPR Single Cycle Kinetics, 1:1 binding model
[5] = SPR, GDP-bound HRAS wild-type protein vs GDP-bound KRAS wild-type protein
[6] = SPR, GDP-bound NRAS wild-type protein vs GDP-bound KRAS wild-type protein

For CCO[C@@H]1C[C@H]2C(=O)NC3(CC(C)(C)C3)C(=O)N(C)[C@@H](C3CCCC3)C(=O)N(C)[C@H](C(=O)N3CCCC3)CC(=O)N(C)[C@H]3CCC/C=C/c4ccc(cc4)C[C@@H](C(=O)N(C)CC(=O)N[C@@H](CCc4cc(F)c(C(F)(F)F)c(F)c4)C(=O)N2C1)N1CC/C=C\C[C@@H](C1=O)N(C)C(=O)CN(C1CC1)C(=O)[C@H]([C@@H](C)CC)NC3=O [PP2583], the “HRAS/KRAS (ratio of KD value with respect to GDP-bound HRAS wild-type protein to KD value with respect to KRAS)” value [1] was “A (a compound having 10 or more and less than 20 is denoted as A)”, the “NRAS/KRAS (ratio of KD value with respect to GDP-bound NRAS wild-type protein to KD value with respect to KRAS)” value [2] was “A (a compound having 10 or more and less than 20 is denoted as A)” and the Kd [3, 4] was 0.11 nM.
CCCN1C(=O)[C@@H]2CCN2C(=O)[C@H](C)N(C)C(=O)[C@H]([C@@H](C)CC)NC(=O)[C@H](CC(C)C)N(C)C(=O)C[C@@H](C(=O)N2CCCC2)N(C)C(=O)[C@H](C2CCCC2)N(C)C(=O)C2(CCCC2)NC(=O)[C@@H]2CCCN2C(=O)[C@H](CCc2ccc(C(F)(F)F)c(Cl)c2)NC(=O)CN(C)C(=O)[C@@H]1Cc1ccc(C(F)(F)F)cc1 [PP0179] ([NMeL]I[NMeA][Aze][NPrPhe(4-CF3)][Sar][hPhe(3-Cl-4-CF3)]P[Ac5c][NMeGly(cPent)][NMeD]-Pyrrolidide; lactam N-11) was tested, and the “HRAS/KRAS (ratio of KD value for HRAS to KD value for KRAS)” value [1, 5] was “B (a compound having 3 or more and less than 10 is denoted as B)”, the “NRAS/KRAS (ratio of KD value for NRAS to KD value for KRAS)” value [2, 6] was “C (A compound having a KD ratio of 0.1 or more and less than 3 is denoted as C)” and the Kd [3, 4] was 0.11 nM.
CCO[C@@H]1C[C@H]2C(=O)NC3(CC(C)(C)C3)C(=O)N(C)[C@@H](C(CC)CC)C(=O)N(C)[C@H](C(=O)N(C)C)CC(=O)N(C)[C@@H](CC(C)C)C(=O)N[C@@H]([C@@H](C)CC)C(=O)N(C)CC(=O)N(C)[C@H]3C/C=C\CCN(C3=O)[C@@H](Cc3ccc(C(F)(F)F)cc3)C(=O)N(C)CC(=O)N[C@@H](CCc3cc(F)c(C(F)(F)F)c(F)c3)C(=O)N2C1 [PP2127] was tested, and the “HRAS/KRAS (ratio of KD value for HRAS to KD value for KRAS)” value [1, 5] was “A (a compound having 10 or more and less than 20 is denoted as A)”, the “NRAS/KRAS (ratio of KD value for NRAS to KD value for KRAS)” value [2, 6] was “AA (a compound having 20 or more is denoted as AA)” and the Kd ([3]; SPR, Single Cycle Kinetics) was 0.18 nM.
With CCO[C@@H]1C[C@H]2C(=O)NC3(CC(C)(C)C3)C(=O)N(C)[C@@H](C(CC)CC)C(=O)N(C)[C@H](C(=O)N3CCCC3)CC(=O)N(C)[C@@H](COC)C(=O)N[C@@H]([C@@H](C)CC)C(=O)N(C)CC(=O)N(C)[C@H]3C/C=C\CCN(C3=O)[C@@H](Cc3ccc(C(F)(F)F)cc3)C(=O)N(C)CC(=O)N[C@@H](CCc3ccc(C(F)(F)F)c(Cl)c3)C(=O)N2C1 [PP2128] the “HRAS/KRAS (ratio of KD value for HRAS to KD value for KRAS)” value [1, 5] was “A (a compound having 10 or more and less than 20 is denoted as A)”, the “NRAS/KRAS (ratio of KD value for NRAS to KD value for KRAS)” value [2, 6] was “AA (a compound having 20 or more is denoted as AA)” and the Kd ([3]; SPR, Single Cycle Kinetics) was 0.4 nM.
In the case of CCC[C@H]1C(=O)N[C@@H]([C@@H](C)CC)C(=O)N(C)CC(=O)N(C)[C@H]2C/C=C\CCN(C2=O)[C@@H](Cc2ccc(C(F)(F)F)cc2)C(=O)N(C)CC(=O)N[C@@H](CCc2ccc(Cl)c(Cl)c2)C(=O)N2CCOC[C@H]2C(=O)NC2(CC(C)(C)C2)C(=O)N(C)[C@@H](C(CC)CC)C(=O)N(C)[C@H](C(=O)N(C)C)CC(=O)N1C [PP2920], the “HRAS/KRAS (ratio of KD value with respect to GDP-bound HRAS wild-type protein to KD value with respect to KRAS)” value [1] is reported as “A (a compound having 10 or more and less than 20 is denoted as A)”, the “NRAS/KRAS (ratio of KD value with respect to GDP-bound NRAS wild-type protein to KD value with respect to KRAS)” value [2] is reported as “AA (a compound having 20 or more is denoted as AA)” and the Kd [3, 4] is reported as 4 nM.
With CCC[C@H]1C(=O)N[C@@H]([C@@H](C)CC)C(=O)N2CCC[C@H]2C(=O)N(C)[C@H]2C/C=C\CCN(C2=O)[C@@H](Cc2ccc(C)cc2)C(=O)N(C)CC(=O)N[C@@H](CCc2ccc(C(F)(F)F)c(OC)c2)C(=O)N2C[C@H](OCC)C[C@H]2C(=O)N(C)C2(CCC2)C(=O)N(C)[C@@H](C(CC)CC)C(=O)N(C)[C@H](C(=O)N(C)C)CC(=O)N1C [PP2329] the “HRAS/KRAS (ratio of KD value for HRAS to KD value for KRAS)” value [1, 5] was “A (a compound having 10 or more and less than 20 is denoted as A)”, the “NRAS/KRAS (ratio of KD value for NRAS to KD value for KRAS)” value [2, 6] was “A (a compound having 10 or more and less than 20 is denoted as A)” and the Kd ([3]; SPR, Single Cycle Kinetics) was 0.42 nM.
With CCO[C@@H]1C[C@H]2C(=O)NC3(CCC3)C(=O)N(C)[C@@H](C3CCCC3)C(=O)N(C)[C@H](C(=O)N3CCOCC3)CC(=O)N(C)[C@@H](COC)C(=O)N[C@@H]([C@@H](C)CC)C(=O)N(C)CC(=O)N(C)[C@H]3CCCCCN(C3=O)[C@@H](Cc3ccc(C(F)(F)F)cc3)C(=O)N(C)CC(=O)N[C@@H](CCc3ccc(C)cc3)C(=O)N2C1 [PP0850] the “HRAS/KRAS (ratio of KD value for HRAS to KD value for KRAS)” value [1, 5] was “B (a compound having 3 or more and less than 10 is denoted as B)”, the “NRAS/KRAS (ratio of KD value for NRAS to KD value for KRAS)” value [2, 6] was “B (a compound having 3 or more and less than 10 is denoted as B)” and the Kd ([3]; SPR, Single Cycle Kinetics) was 12 nM.
With CCO[C@@H]1C[C@H]2C(=O)NC3(CCCC3)C(=O)N(C)[C@@H](C3CCCC3)C(=O)N(C)[C@H](C(=O)N(C)C)CC(=O)N(C)[C@@H](CC(C)C)C(=O)N[C@@H]([C@@H](C)CC)C(=O)N(C)CC(=O)N(C)[C@H]3C/C=C\CCN(C3=O)[C@@H](Cc3ccc(C)cc3)C(=O)N(C)CC(=O)N[C@@H](CCc3ccc(C(F)(F)F)c(Cl)c3)C(=O)N2C1 [PP2195] the “HRAS/KRAS (ratio of KD value for HRAS to KD value for KRAS)” value [1, 5] was “A (a compound having 10 or more and less than 20 is denoted as A)”, the “NRAS/KRAS (ratio of KD value for NRAS to KD value for KRAS)” value [2, 6] was “A (a compound having 10 or more and less than 20 is denoted as A)” and the Kd ([3]; SPR, Single Cycle Kinetics) was 0.096 nM.
For CCO[C@@H]1C[C@H]2C(=O)NC3(CCC3)C(=O)N(C)[C@@H](C3CCCC3)C(=O)N(CCC3CCC3)[C@H](C(=O)N(C)C)CC(=O)N(C)[C@@H](CC)C(=O)N[C@@H]([C@@H](C)CC)C(=O)N(C)CC(=O)N(C)[C@H]3CCCCN(C3=O)[C@@H](Cc3ccc(C(F)(F)F)cc3)C(=O)N(C)CC(=O)N[C@@H](CCc3cc(F)c(C(F)(F)F)c(F)c3)C(=O)N2C1 [PP0645], the “HRAS/KRAS (ratio of KD value with respect to HRAS to KD value with respect to KRAS)” value [1, 5] was “B (a compound having 3 or more and less than 10 is denoted as B)”, the “NRAS/KRAS (ratio of KD value with respect to NRAS to KD value with respect to KRAS)” value [2, 6] was “B (a compound having 3 or more and less than 10 is denoted as B)” and the Kd [3, 4] was 0.028 nM.
In the case of C#CCN1CC(=O)N(C)[C@H]2C/C=C\CCN(C2=O)[C@@H](Cc2ccc(C)cc2)C(=O)N(C)CC(=O)N[C@@H](CCc2cc(F)c(C(F)(F)F)c(F)c2)C(=O)N2C[C@H](OCC)C[C@H]2C(=O)NC2(CC(C)(C)C2)C(=O)N(C)[C@@H](C2CCCC2)C(=O)N(C)[C@H](C(=O)N(C)C)CC(=O)N(C)[C@@H](CCC)C(=O)N[C@@H]([C@@H](C)CC)C1=O [PP2095], the “HRAS/KRAS (ratio of KD value for HRAS to KD value for KRAS)” value [1, 5] is reported as “A (a compound having 10 or more and less than 20 is denoted as A)”, the “NRAS/KRAS (ratio of KD value for NRAS to KD value for KRAS)” value [2, 6] is reported as “A (a compound having 10 or more and less than 20 is denoted as A)” and the Kd ([3]; SPR, Single Cycle Kinetics) is reported as 0.15 nM.
